Reference: patent US8455497B2, “Inhibitors of aspartyl protease” (Vertex Pharmaceuticals Incorporated, priority 1999, dated 2013)
Read-outs that look alike come from different tables or passages of the source.

Assays:
HIV-1 (strain IIIB) = assay: Antiviral activity assay in MT4 cells (propidium iodide based); format: cell-based; settings: wild type HIV-1 virus, MT4 cells, read-out: Wildtype virus - IC50
Procedure, shortened: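 MT4 cells infected with HIV-1 IIIB (MOI 100×TCID50, 1 hr, 37°C), diluted 6-fold into wells with serially diluted compound, incubated 5 days. Cells lysed with Nonidet-40; DNA content per well estimated by propidium iodide staining as the viability read-out, with mock-infected controls.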

[1] = tested on: D545701-14 multi protease inhibitor resistant virus; assay: Anti-viral activity against resistant virus D545701-14 in MT4 cells; format: cell-based, HIV-1
[2] = tested on: EP13 multi protease inhibitor resistant virus; assay: Anti-viral activity against resistant virus EP13 in MT4 cells; format: cell-based, HIV-1
Procedure, shortened: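 MT4 cells infected for 1 h at 37 °C, MOI 100×TCID50, then diluted 6-fold onto pre-diluted compound and cultured 5 days (5% CO2). Viable-cell DNA content estimated by propidium iodide. EP13 carries protease mutations M46I, L63P, A71V, V82F/L, I84V, no RT mutations.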

[3] = Human immunodeficiency virus 1, IIIB
[4] = Human immunodeficiency virus 1, MT4, read-out: D545701-14 mutant - IC50, D545701-14 multi protease inhibitor resistant virus, MT4 cells
[5] = Human immunodeficiency virus 1, MT4, read-out: EP13 mutant IC50, EP13 multi protease inhibitor resistant virus, MT4 cells
[6] = D545701-14 multi protease inhibitor resistant virus, MT4 cells, read-out: D545701-14 mutant - IC50
[7] = EP13 multi protease inhibitor resistant virus, MT4 cells, read-out: EP13 mutant IC50

Row | SMILES | IC50 (HIV-1 (strain IIIB); [3]) [nM] | IC50 [1, 4] [nM] | IC50 [2, 5] [nM] | IC50 (HIV-1 (strain IIIB)) [nM] | IC50 [1, 6] [nM] | IC50 [2, 7] [nM]
1 | CC(C)CN(C[C@@H](O)[C@H](Cc1ccc(OCc2ccc3ccccc3c2)cc1)NC(=O)O[C@H]1CO[C@H]2OCC[C@H]21)S(=O)(=O)c1ccc2c(c1)OCO2 [Compound 376, (3R,3aS,6aR)-hexahydrofuro[2,3-b]furan-3-yl (1S,2R)-3-[(1,3-benzodioxol-5-ylsulfonyl)(isobutyl)amino]-2-hydroxy-1-[4-(2-naphthylmethoxy)benzyl]propylcarbamate] | 1 to 10 | 10 to 100 | 10 to 100 |  |  | 
2 | CNC(=O)OCCCOc1ccc(C[C@H](NC(=O)O[C@H]2CO[C@H]3OCC[C@H]32)[C@H](O)CN(CC(C)C)S(=O)(=O)c2ccc3c(c2)OCO3)cc1 [Compound 320, (3R,3aS,6aR)-Hexahydrofuro[2,3-b]furan-3-yl (1S,2R)-3[(1,3-benzodioxol-5-ylsulfonyl)(isobutyl)amino]-2-hydroxy-1-[4-(3-{[(methylamino)carbonyl]oxy}propoxy)benzyl]propylcarbamate] | 1 to 10 | 1 to 10 | 1 to 10 |  |  | 
3 | CC(C)CN(C[C@@H](O)[C@H](Cc1ccc(OCCCNc2ccc(C#N)cn2)cc1)NC(=O)O[C@H]1CO[C@H]2OCC[C@H]21)S(=O)(=O)c1ccc2c(c1)OCO2 [Compound 270, (3R,3aS,6aR)-hexahydrofuro[2,3-b]furan-3-yl (1S,2R)-3-[(1,3-benzodioxol-5-ylsulfonyl)(isobutyl)amino]-1-(4-{3[(5-cyano-2-pyridinyl)amino]propoxy}benzyl)-2-hydroxypropylcarbamate] | 1 to 10 | 1 to 10 | 1 to 10 |  |  | 
4 | COC(=O)CCCOc1ccc(C[C@H](NC(=O)OC2CO[C@H]3OCCC23)[C@H](O)CN(CC(C)C)S(=O)(=O)c2ccc3c(c2)OCO3)cc1 (stereo partly drawn) [Compound 303, Methyl 4-(4-{(2S,3R)-2-({[3R,3aS,6aR)-hexahydrofuro[2,3-b]furan-3-yloxy]carbonyl}amino)-4-[(1,3-benzodioxol-5-ylsulfonyl)(isobutyl)amino]-3-hydroxybutyl}phenoxy) butanoate] | 10 to 100 | 10 to 100 | 10 to 100 |  |  | 
5 | CC(C)CN(C[C@@H](O)[C@H](Cc1ccc(OCCCN2CCCC2)cc1)NC(=O)O[C@H]1CO[C@H]2OCC[C@H]21)S(=O)(=O)c1ccc2c(c1)OCO2 [Compound 280, (3R,3aS,6aR)-hexahydrofuro[2,3-b]furan-3-yl (1S,2R)-3-[(1,3-benzodioxol-5-ylsulfonyl)(isobutyl)amino]-2-hydroxy-1-{4-[3-(1-pyrrolidinyl)propoxy]-3-benzyl}propylcarbamate] |  |  |  | 10 to 100 | 1 to 10 | 1 to 10
6 | CC(C)CN(C[C@@H](O)[C@H](Cc1ccc(OC(=O)NCCn2ccnc2)cc1)NC(=O)O[C@H]1CO[C@H]2OCC[C@H]21)S(=O)(=O)c1ccc2c(c1)OCO2 [Compound 313, (3R,3aS,6aR)-Hexahydrofuro[2,3-b]furan-3-yl (1S,2R)-3-[(1,3-benzodioxol-5-ylsulfonyl)(isobutyl)amino]-2-hydroxy-1-{4-[({[2-(1H-imidazol-1-yl)ethyl]amino}carbonyl)oxy]benzyl}propylcarbamate] | 10 to 100 | 1 to 10 | 1 to 10 |  |  | 
7 | Cc1nc(COc2ccc(C[C@H](NC(=O)O[C@@H]3CO[C@H]4OCC[C@H]43)[C@H](O)CN(CC(C)C)S(=O)(=O)c3ccc(N)cc3)cc2)cs1 [Compound 300, (3S,3aS,6aR)-hexahydrofuro[2,3-b]furan-3-yl (1S,2R)-3-[[(4-aminophenyl)sulfonyl]-(isobutyl)amino]-2-hydroxy-1-{4-[(2-methyl-1,3-thiazol-4-yl)methoxy]benzyl}propylcarbamate] | 1 to 10 | 1 to 10 | 1 to 10 |  |  | 
8 | CC(=O)NCCCCOc1ccc(C[C@H](NC(=O)O[C@H]2CO[C@H]3OCC[C@H]32)[C@H](O)CN(CC(C)C)S(=O)(=O)c2ccc3c(c2)OCO3)cc1 [Compound 230] |  |  |  | 10 to 100 | 1 to 10 | 1 to 10
